Test results: US20230365537A1, “POLO LIKE KINASE 4 INHIBITORS” (ORIC Pharmaceuticals, Inc., priority 2021, published 2023)

Assays:
CHP-134 cells = experiment: CHP134 CellTiter-Glo (CTG) Assay; assay type: cell-based; details: Homo sapiens, 5 days, viable cells by CellTiter-Glo
How it was run: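 CHP-134 cells seeded at 200 cells/well for 16 h, then given nine 1:3 serial dilutions in quadruplicate at 37° C, 5% CO2. Viable cells measured by CellTiter-Glo luminescence after 5 days; IC50 calculated from curves.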

[1] = biological target: human recombinant Aurora B (Homo sapiens (Human), UniProt Q96GD4); experiment: Aurora B Kinase Biochemical Assay (ADP-Glo); details: ratio of Aurora B IC50 to PLK4 IC50 (selectivity)
How it was run: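 Recombinant human Aurora B (20 nM in pH 7.5 HEPES buffer with MgCl2, EGTA, DTT, Brij-35, BSA) preincubated with compound 15 min at RT. ADP formed quantified by ADP-Glo luminescence after ATP depletion (40 min) and detection (30 min). IC50 from four-parameter non-linear regression.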

[2] = biological target: human recombinant Aurora A (Homo sapiens (Human), UniProt O14965); experiment: Aurora A Kinase Biochemical Assay (ADP-Glo); details: ratio of Aurora A IC50 to PLK4 IC50 (selectivity)
human recombinant PLK4 = human recombinant PLK4 (Homo sapiens (Human), UniProt O00444); experiment: PLK4 Biochemical Assay (ADP-Glo); details: 0.5 nM PLK4, 8.0 µM ATP, 4.7 µM MBP, 6 hours at RT
How it was run: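 Recombinant human PLK4 (added at 1.0 nM) was preincubated 15 min at RT with compound in 50 mM HEPES pH 7.5, 10 mM MgCl2, 1 mM EGTA, 1 mM DTT, 0.01% Brij-35, 0.01% BSA. ADP formed was detected by ADP-Glo luminescence (40 min ATP depletion, 30 min detection). IC50 came from a four-parameter fit.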

Chain of human recombinant Aurora A (O14965 whole entry): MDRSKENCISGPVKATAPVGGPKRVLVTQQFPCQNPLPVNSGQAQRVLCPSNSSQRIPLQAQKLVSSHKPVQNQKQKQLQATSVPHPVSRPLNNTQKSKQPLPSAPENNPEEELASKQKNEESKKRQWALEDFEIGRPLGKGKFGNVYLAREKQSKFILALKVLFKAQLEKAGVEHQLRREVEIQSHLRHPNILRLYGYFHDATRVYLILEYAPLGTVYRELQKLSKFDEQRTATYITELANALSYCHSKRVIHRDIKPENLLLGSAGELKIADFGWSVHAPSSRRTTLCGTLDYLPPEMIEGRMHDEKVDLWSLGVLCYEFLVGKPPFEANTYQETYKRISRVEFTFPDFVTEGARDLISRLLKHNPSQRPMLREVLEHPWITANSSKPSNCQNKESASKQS
Chain of human recombinant Aurora B (Q96GD4 whole entry): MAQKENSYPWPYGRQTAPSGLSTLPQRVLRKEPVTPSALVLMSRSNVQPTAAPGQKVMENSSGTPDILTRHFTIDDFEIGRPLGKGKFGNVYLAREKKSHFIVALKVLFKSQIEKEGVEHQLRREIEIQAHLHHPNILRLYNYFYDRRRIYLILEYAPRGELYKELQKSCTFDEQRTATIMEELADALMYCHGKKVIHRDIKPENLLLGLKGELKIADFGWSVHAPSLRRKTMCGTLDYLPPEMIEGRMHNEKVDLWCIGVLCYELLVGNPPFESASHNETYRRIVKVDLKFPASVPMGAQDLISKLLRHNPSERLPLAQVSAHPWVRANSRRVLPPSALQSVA
Chain of human recombinant PLK4 (O00444 whole entry): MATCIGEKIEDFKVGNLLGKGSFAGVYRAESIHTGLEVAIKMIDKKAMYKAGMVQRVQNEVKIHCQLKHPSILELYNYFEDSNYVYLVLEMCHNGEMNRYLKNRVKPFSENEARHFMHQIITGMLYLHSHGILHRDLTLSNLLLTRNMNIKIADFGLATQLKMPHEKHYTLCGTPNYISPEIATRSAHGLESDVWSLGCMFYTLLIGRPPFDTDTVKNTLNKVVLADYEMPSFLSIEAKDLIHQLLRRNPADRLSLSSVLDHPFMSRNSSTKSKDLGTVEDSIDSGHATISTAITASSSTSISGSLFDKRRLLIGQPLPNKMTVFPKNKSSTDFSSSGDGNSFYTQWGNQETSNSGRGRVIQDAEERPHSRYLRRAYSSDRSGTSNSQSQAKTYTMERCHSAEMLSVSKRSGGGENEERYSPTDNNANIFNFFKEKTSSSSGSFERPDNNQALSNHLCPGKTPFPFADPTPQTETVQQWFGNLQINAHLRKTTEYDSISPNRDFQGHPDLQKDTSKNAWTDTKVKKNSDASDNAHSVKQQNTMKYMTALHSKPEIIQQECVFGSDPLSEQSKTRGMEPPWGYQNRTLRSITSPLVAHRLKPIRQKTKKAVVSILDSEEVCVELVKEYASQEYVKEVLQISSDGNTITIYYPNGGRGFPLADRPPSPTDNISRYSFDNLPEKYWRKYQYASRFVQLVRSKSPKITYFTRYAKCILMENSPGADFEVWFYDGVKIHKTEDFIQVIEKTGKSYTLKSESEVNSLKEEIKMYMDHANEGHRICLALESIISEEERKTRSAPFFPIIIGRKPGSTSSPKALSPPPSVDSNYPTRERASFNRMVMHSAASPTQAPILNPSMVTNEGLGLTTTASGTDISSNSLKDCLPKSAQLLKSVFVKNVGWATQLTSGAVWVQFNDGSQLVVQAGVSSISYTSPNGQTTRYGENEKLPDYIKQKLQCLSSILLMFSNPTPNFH

Compound | [Aurora B IC50 (nM)]/[PLK4 IC50 (nM)] [1] | [Aurora A IC50 (nM)]/[PLK4 IC50 (nM)] [2] | IC50 (human recombinant PLK4) [nM] | IC50 (CHP-134 cells; CHP-134, 120 h) [nM] | IC50 (CHP-134 cells; 120 h) [nM]
COc1ccc2c(c1)[C@]1(C[C@H]1c1ccc3c(Nc4nc(CCO)nc(N5CCOCC5)c4OC)n[nH]c3c1)C(=O)N2 [Example 68, (1R,2S)-2-(3-{[2-(2-hydroxyethyl)-5-methoxy-6-(morpholin-4-yl)pyrimidin-4-yl]amino}-1H-indazol-6-yl)-5′-methoxyspiro[cyclopropane-1,3′-indol]-2′(1′H)-one] | 1347.967 | 4761.518 | 7.38 | 2480 | 
COc1ccc2c(c1)[C@]1(C[C@H]1c1ccc3c(Nc4cc(-c5ncco5)cnc4OC)n[nH]c3c1)C(=O)N2 [Example 234, (1R,2S)-5′-Methoxy-2-(3-{[2-methoxy-5-(1,3-oxazol-2-yl)pyridin-3-yl]amino}-1H-indazol-6-yl)spiro[cyclopropane-1,3′-indol]-2′(1′H)-one] | 831.7349 | 608.9799 | 2.29 | 276 | 
CCOc1cc(S(C)(=O)=O)cnc1Nc1n[nH]c2cc([C@@H]3C[C@@]34C(=O)Nc3ccc(Cl)cc34)ccc12 [Example 276, (1R,2S)-5′-chloro-2-(3-{[3-ethoxy-5-(methanesulfonyl)pyridin-2-yl]amino}-1H-indazol-6-yl)spiro[cyclopropane-1,3′-indol]-2′(1′H)-one] | 2173.2976 | 377.9648 | 2.61 | 4080 | 
COc1ccc2c(c1)[C@]1(C[C@H]1c1ccc3c(Nc4ncnc(N5CCOCC5)c4OC)n[nH]c3c1)C(=O)N2 [Example 11, (1R,2S)-5′-Methoxy-2-(3-{[5-methoxy-6-(morpholin-4-yl)pyrimidin-4-yl)amino}-1H-indazol-6-yl)spiro[cyclopropane-1,3′-indol]-2′(1′H)-one] | 77.87 | 3277.276 | 4.88 | 2950 | 
COc1ccc2c(c1)[C@]1(C[C@H]1c1ccc3c(Nc4ncc(S(C)(=O)=O)nc4OC)n[nH]c3c1)C(=O)N2 [Example 242, (1R,2S)-2-(3-{[5-(methanesulfonyl)-3-methoxypyrazin-2-yl]amino}-1H-indazol-6-yl)-5′-methoxyspiro[cyclopropane-1,3′-indol]-2′(1′H)-one] | 129.0381 | 307.7159 | 6.52 | 5510 | 
COc1ccc2c(c1)[C@]1(C[C@H]1c1ccc3c(Nc4ccc(C(=O)NNC(C)C)nc4OC)n[nH]c3c1)C(=O)N2 [Example 219, 6-methoxy-5-({6-[(1R,2S)-5′-methoxy-2′-oxo-1′,2′-dihydrospiro[cyclopropane-1,3′-indol]-2-yl]-1H-indazol-3-yl}amino)-N′-(propan-2-yl)pyridine-2-carbohydrazide] | 64.2571 | 763.5782 | 2.5 | 510 | 
COc1ccc2c(c1)[C@]1(C[C@H]1c1ccc3c(Nc4nc(C)ncc4OCC(F)F)n[nH]c3c1)C(=O)N2 [Example 147, (1R,2S)-2-(3-{[5-(2,2-difluoroethoxy)-2-methylpyrimidin-4-yl]amino}-1H-indazol-6-yl)-5′-methoxyspiro[cyclopropane-1,3′-indol]-2′(1′H)-one] | 483.0689 | 2292.2093 | 4.22 | 1300 | 
COc1ccc2c(c1)[C@]1(C[C@H]1c1ccc3c(Nc4nc(C#N)nc(N5CCOCC5)c4OC)n[nH]c3c1)C(=O)N2 [Example 61, 5-methoxy-4-({6-[(1R,2S)-5′-methoxy-2′-oxo-1’,2′-dihydrospiro[cyclopropane-1,3′-indol]-2-yl]-1H-indazol-3-yl}amino)-6-(morpholin-4-yl)pyrimidme-2-carbonitrile] | 955.0539 | 588.8148 | 9.74 |  | 2380

The remaining molecules from weak to strong by IC50 (human recombinant PLK4), led by results:

[Aurora B IC50 (nM)]/[PLK4 IC50 (nM)] [1] | [Aurora A IC50 (nM)]/[PLK4 IC50 (nM)] [2] | IC50 (human recombinant PLK4) [nM] | Compound | IC50 (CHP-134 cells; CHP-134, 120 h) [nM] | IC50 (CHP-134 cells; 120 h) [nM]
306.8323 | 4489.796 | 2.25 | COc1ccc2c(c1)[C@]1(C[C@H]1c1ccc3c(Nc4ncnc(N5CCN(C)CC5)c4Cl)n[nH]c3c1)C(=O)N2 [Example 20, (1R,2S)-2-(3-{[5-chloro-6-(4-methylpiperazin-1-yl)pyrimidin-4-yl]amino}-1H-indazol-6-yl)-5′-methoxyspiro[cyclopropane-1,3′-indol]-2′(1′H)-one] | 263 | 
333.3333 | 908.4004 | 2.24 | COc1ccc2c(c1)[C@]1(C[C@H]1c1ccc3c(Nc4nc(C(C)C)cnc4OC)n[nH]c3c1)C(=O)N2 [Example 83, (1R,2S)-5′-methoxy-2-(3-{[3-methoxy-6-(propan-2-yl)pyrazin-2-yl]amino}-1H-indazol-6-yl)spiro[cyclopropane-1,3′-indol]-2′(1′H)-one] | 277 | 
249.5114 | 5290.8329 | 2.15 | COc1ccc2c(c1)[C@]1(C[C@H]1c1ccc3c(Nc4ncnc(N5CC6(COC6)C5)c4Cl)n[nH]c3c1)C(=O)N2 [Example 132, (1R,2S)-2-(3-{[5-chloro-6-(2-oxa-6-azaspiro[3.3]heptan-6-yl)pyrimidin-4-yl]amino}-1H-indazol-6-yl)-5′-methoxyspiro[cyclopropane-1,3′-indol]-2′(1′H)-one] | 618 | 
225.3871 | 92.2102 | 2.13 | COc1ccc2c(c1)[C@]1(C[C@H]1c1ccc3c(Nc4nc(N(C)C)nc5c4CCC5)n[nH]c3c1)C(=O)N2 [Example 213, (1R,2S)-2-(3-{[2-(dimethylamino)-6,7-dihydro-5H-cyclopenta[d]pyrimidin-4-yl]amino}-1H-indazol-6-yl)-5′-methoxyspiro[cyclopropane-1,3′-indol]-2′(1′H)-one] | 190 | 
353.7741 | 365.8511 | 1.92 | COc1ccc2c(c1)[C@]1(C[C@H]1c1ccc3c(Nc4nc(N5CC(F)C5)ncc4OC)n[nH]c3c1)C(=O)N2 [Example 174, (1R,2S)-2-(3-{[2-(3-fluoroazetidin-1-yl)-5-methoxypyrimidin-4-yl]amino}-1H-indazol-6-yl)-5′-methoxyspiro[cyclopropane-1,3′-indol]-2′(1′H)-one] | 392 | 
3067.539 | 5554.974 | 1.91 | COc1ccc2c(c1)[C@]1(C[C@H]1c1ccc3c(Nc4nc(C(C)C)nc(N5CCOCC5)c4OC)n[nH]c3c1)C(=O)N2 [Example 85, (1R,2S)-5′-methoxy-2-(3-{[5-methoxy-6-(morpholin-4-yl)-2-(propan-2-yl)pyrimidin-4-yl]amino}-1H-indazol-6-yl)spiro[cyclopropane-1,3′-indol]-2′(1′H)-one] | 107 | 
230.4498 | 382.0069 | 1.73 | COc1ccc2c(c1)[C@]1(C[C@H]1c1ccc3c(Nc4nc(C5COC5)cnc4OC)n[nH]c3c1)C(=O)N2 [Example 100, (1R,2S)-5′-methoxy-2-(3-{[3-methoxy-6-(oxetan-3-yl)pyrazin-2-yl]amino}-1H-indazol-6-yl)spiro[cyclopropane-1,3′-indol]-2′(l′H)-one] | 567 | 
68.0773 | 305.4106 | 1.03 | COc1ccc2c(c1)[C@]1(C[C@H]1c1ccc3c(Nc4nc(SC)ncc4OC)n[nH]c3c1)C(=O)N2 [Example 155, (1R,2S)-5′-methoxy-2-(3-{[5-methoxy-2-(methylsulfanyl)pyrimidin-4-yl]amino}-1H-indazol-6-yl)spiro[cyclopropane-1,3′-indol]-2′(1′H)-one] | 192 | 
176.8683 | 426.8090 | 0.843 | COc1ccc2c(c1)[C@]1(C[C@H]1c1ccc3c(Nc4ccc(C(=O)N5CC6CCC(C5)O6)nc4OC)n[nH]c3c1)C(=O)N2 [Example 246, (1R,2S)-5′-methoxy-2-(3-{[2-methoxy-6-(8-oxa-3-azabicyclo[3.2.1]octane-3-carbonyl)pyridin-3-yl]amino}-1H-indazol-6-yl)spiro[cyclopropane-1,3′-indol]-2′(1′H)-one] | 68.4 | 
240.6394 | 4791.187 | 0.694 | COc1ccc2c(c1)[C@]1(C[C@H]1c1ccc3c(Nc4ncnc(N5CCOCC5)c4Cl)n[nH]c3c1)C(=O)N2 [Example 9, (1R,2S)-2-(3-{[5-Chloro-6-(morpholin-4-yl)pyrimidin-4-yl]amino}-1H-indazol-6-yl)-5′-methoxyspiro[cyclopropane-1,3′-indol]-2′(1′H)-one] | 99.7 | 
